Test results published in PubChem BioAssay (NCI).
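48-hour exposure; five concentrations; linearly interpolated endpoints. Abbreviation: GI50, concentration required for 50% inhibition of growth. The concentration for full growth arrest is given as TGI.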

Key:
Experiment in all cases: NCI tumour cell line growth inhibition, 48 h
SN12C renal = system: SN12C renal
UACC-62 melanoma = system: UACC-62 melanoma
HS 578T breast = system: HS 578T breast
SF-295 CNS = system: SF-295 CNS
A549 NSCLC = system: A549 NSCLC
U251 CNS = system: U251 CNS
SW-620 colon = system: SW-620 colon
MALME-3M melanoma = system: MALME-3M melanoma
SR leukemia = system: SR leukemia
NCI/ADR-RES ovarian = system: NCI/ADR-RES ovarian

For `C[n+]1c2cc(N)ccc2cc2ccc(N)cc21`, the GI50 (SN12C renal) was 701 nM [middle of 4 runs], the TGI (SN12C renal) was 4.03 µM [middle of 4 runs] and the GI50 (UACC-62 melanoma) was 1.26 µM [middle of 4 runs]. The TGI (UACC-62 melanoma) was 2.86 µM [middle of 4 runs], the GI50 (HS 578T breast) was 1.54 µM [middle of 4 runs] and the TGI (HS 578T breast) was 6.31 µM [middle of 4 runs]. For the same molecule, the TGI (SF-295 CNS) was 5.63 µM [middle of 4 runs], the GI50 (A549 NSCLC) was 256 nM [middle of 4 runs] and the GI50 (U251 CNS) was 733 nM [middle of 4 runs]. The TGI (U251 CNS) was 4.22 µM [middle of 4 runs], the GI50 (SW-620 colon) was 198 nM [middle of 4 runs] and the GI50 (MALME-3M melanoma) was 763 nM [middle of 4 runs]. The TGI (MALME-3M melanoma) was 2.86 µM [middle of 4 runs], the GI50 (SR leukemia) was 687 nM [middle of 4 runs] and the GI50 (NCI/ADR-RES ovarian) was 2.72 µM [middle of 4 runs].
Molecule `CC(=O)C1=C(O)C=C2Oc3c(C(=O)/C=C/c4c(Cl)cccc4Cl)c(O)c(C)c(O)c3[C@]2(C)C1=O` has a GI50 (SN12C renal) of 0.527 µM, a TGI (SN12C renal) of 1.76 µM and a GI50 (UACC-62 melanoma) of 0.677 µM. It also gave a TGI (UACC-62 melanoma) of 2.8 µM, a GI50 (HS 578T breast) of 2.39 µM and a TGI (HS 578T breast) of 7.86 µM. It also gave a GI50 (SF-295 CNS) of 0.634 µM, a TGI (SF-295 CNS) of 3.17 µM and a GI50 (A549 NSCLC) of 1.58 µM. It also gave a TGI (A549 NSCLC) of 5.53 µM, a GI50 (U251 CNS) of 0.754 µM and a TGI (U251 CNS) of 4.09 µM. It also gave a GI50 (SW-620 colon) of 0.64 µM, a TGI (SW-620 colon) of 3.13 µM and a GI50 (MALME-3M melanoma) of 2.1 µM. The TGI (MALME-3M melanoma) was 4.96 µM, the GI50 (SR leukemia) was 1.52 µM and the TGI (SR leukemia) was 7.7 µM. It also gave a GI50 (NCI/ADR-RES ovarian) of 0.786 µM and a TGI (NCI/ADR-RES ovarian) of 5.21 µM.
`O=C1C=CC(=Nc2cc(Br)c(O)c(Br)c2)C=C1` was tested, and the GI50 (SN12C renal) was 25.6 µM, the TGI (SN12C renal) was 84.1 µM and the GI50 (UACC-62 melanoma) was 25.6 µM. For the same molecule, the TGI (UACC-62 melanoma) was 93.2 µM, the GI50 (HS 578T breast) was 32.1 µM and the TGI (HS 578T breast) was over 100 µM. For the same molecule, the GI50 (SF-295 CNS) was 27 µM, the TGI (SF-295 CNS) was 96.2 µM and the GI50 (A549 NSCLC) was 42.6 µM. For the same molecule, the TGI (A549 NSCLC) was over 100 µM, the GI50 (U251 CNS) was 17.8 µM and the TGI (U251 CNS) was 99.1 µM. It also gave a GI50 (SW-620 colon) of 15.8 µM, a TGI (SW-620 colon) of over 100 µM and a GI50 (MALME-3M melanoma) of 18.4 µM. It also gave a TGI (MALME-3M melanoma) of over 100 µM, a GI50 (SR leukemia) of 2.13 µM and a TGI (SR leukemia) of over 100 µM. The GI50 (NCI/ADR-RES ovarian) was 47.2 µM and the TGI (NCI/ADR-RES ovarian) was over 100 µM.
